Test results reported in US20250223301A1, “KINASE INHIBITORS, PREPARATION METHODS AND USES THEREOF” (InventisBio Co., Ltd., priority 2022, published 2025).
Read-outs that look alike come from different tables or passages of the source.

What was measured:
PBMC = assay: Human PBMC IL-2 assay; assay type: cell-based; settings: anti-CD3/CD28 stimulation overnight, IL-2 level
How it was run: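 Healthy-donor frozen PBMC were thawed, rested 4 h at 37 °C and plated at ~200,000 cells/well. Cells were preincubated 60 min at 37 °C with compound solution (10 uM to 0.6 nM, 8 points, 4-fold, as added), then stimulated overnight with anti-CD3/CD28. Supernatant IL-2 was quantified by immunoassay kit and plotted against log compound concentration.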

Jurkat cells = assay: Jurkat IL-2 assay; assay type: cell-based; settings: Homo sapiens, anti-CD3/CD28 stimulation overnight, IL-2 level
How it was run: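 Cells in RPMI-1640 with 10% FBS received compound solution (5 uM to 2.3 nM, 8 points, 3-fold dilution) for 60 minutes at 37° C. They were then stimulated overnight at 37° C. with anti-CD3/CD28 antibody. IL-2 in the supernatant was quantified by immunoassay kit and plotted against log compound concentration.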

[1] = Human microsomal clearance assay; assay type: in vitro ADME; settings: pH 7.4; for CLint scaled at 1 μM: human, liver microsomes; for half-life at 1 μM: human liver microsomes 0.5 mg/mL, 1 uM compound
Method: This study aimed to assess the metabolic stability of a compound in human liver microsomes using a microsomal clearance assay.
A mixture containing 100 mM potassium phosphate, pH 7.4, 0.5 mg/mL liver microsomes, 2 mM NADPH, and 1 μM compound were prepared and added to 96-well plate. The plates were then incubated at 37 ? for different time points (0, 5, 15, 30, 45 minutes) and the reaction was stopped with acetonitrile solution containing an internal standard. The samples were then analyzed by LC/MS/MS to determine how much of the compound remained at each time point. The elimination rate constant and half-life were calculated from the data, and the in vitro intrinsic clearance (CLint) was determined as follows: […]

[2] = tested on: whole blood from male C57BL6 mice; assay: Mouse whole blood IFN-gamma assay; assay type: cell-based; settings: anti-mouse CD3/CD28 0.6 ug/mL, 20 hours
Method: The whole blood from male C57BL6 mice (6-8 weeks old, Beijing Vital River Laboratory Animal Technology Co., Ltd.) was collected, pooled and dispensed at 200 uL per well in a 96-well plate. The blood was treated with compounds for one hour at 37° C. in a humidified 5% CO2 incubator. The blood was then stimulated with anti-mouse CD3 and anti-mouse CD28 antibody (BioLegend Cat #100340, #102116) at a final concentration of 0.6 ug/mL for 20 hours at 37° C. in a humidified 5% CO2 incubator. The blood was spun down, IFN-gamma in the supernatants was measured using ELISA kit (Excellbio Cat #EM002-96, #EM007-96) according the manufacture's instruction.

DGKz = DGKz (Homo sapiens (Human), UniProt Q13574); assay: DGK ADP-Glo kinase assay (DGKz); assay type: biochemical; settings: 5 nM DGKz, 15 uM ATP
Sequence of DGKz (Q13574 whole entry): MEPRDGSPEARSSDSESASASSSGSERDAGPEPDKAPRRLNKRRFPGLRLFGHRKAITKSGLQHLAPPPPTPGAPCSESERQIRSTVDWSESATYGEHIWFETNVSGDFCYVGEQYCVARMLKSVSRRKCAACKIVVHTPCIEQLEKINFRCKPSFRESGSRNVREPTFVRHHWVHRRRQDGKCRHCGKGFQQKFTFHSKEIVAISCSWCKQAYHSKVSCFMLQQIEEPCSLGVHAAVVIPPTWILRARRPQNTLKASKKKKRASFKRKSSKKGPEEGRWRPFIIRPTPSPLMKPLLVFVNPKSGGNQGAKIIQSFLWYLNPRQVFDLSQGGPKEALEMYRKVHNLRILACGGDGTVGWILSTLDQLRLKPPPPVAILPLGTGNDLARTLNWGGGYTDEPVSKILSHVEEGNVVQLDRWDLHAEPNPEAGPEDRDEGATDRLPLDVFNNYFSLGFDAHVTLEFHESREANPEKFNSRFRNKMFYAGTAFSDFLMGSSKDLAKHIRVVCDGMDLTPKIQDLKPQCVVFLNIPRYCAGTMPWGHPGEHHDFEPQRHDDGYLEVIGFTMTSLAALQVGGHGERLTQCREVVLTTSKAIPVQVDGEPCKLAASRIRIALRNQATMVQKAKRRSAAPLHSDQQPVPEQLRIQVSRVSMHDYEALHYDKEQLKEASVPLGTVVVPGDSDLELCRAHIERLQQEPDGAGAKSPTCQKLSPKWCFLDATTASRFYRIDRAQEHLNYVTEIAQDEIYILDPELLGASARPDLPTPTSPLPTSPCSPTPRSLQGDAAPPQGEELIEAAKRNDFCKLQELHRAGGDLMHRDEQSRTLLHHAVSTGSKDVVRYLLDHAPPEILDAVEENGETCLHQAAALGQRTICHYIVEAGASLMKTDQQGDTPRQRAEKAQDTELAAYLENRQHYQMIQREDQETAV
Method: Luminescence was recorded using an Tecan SPARK microplate reader.

DGKa [3] = biological target: T1, DGKa (Homo sapiens (Human), UniProt P23743);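 note: biochemical DGK kinase assay, ADP-Glo luminescence from ADP made by phosphorylating 1,2-dioleoyl-sn-glycerol, 20 min compound preincubation then 40 min reaction at 25 °C, 1% DMSO control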
T1 sequence (P23743 whole entry): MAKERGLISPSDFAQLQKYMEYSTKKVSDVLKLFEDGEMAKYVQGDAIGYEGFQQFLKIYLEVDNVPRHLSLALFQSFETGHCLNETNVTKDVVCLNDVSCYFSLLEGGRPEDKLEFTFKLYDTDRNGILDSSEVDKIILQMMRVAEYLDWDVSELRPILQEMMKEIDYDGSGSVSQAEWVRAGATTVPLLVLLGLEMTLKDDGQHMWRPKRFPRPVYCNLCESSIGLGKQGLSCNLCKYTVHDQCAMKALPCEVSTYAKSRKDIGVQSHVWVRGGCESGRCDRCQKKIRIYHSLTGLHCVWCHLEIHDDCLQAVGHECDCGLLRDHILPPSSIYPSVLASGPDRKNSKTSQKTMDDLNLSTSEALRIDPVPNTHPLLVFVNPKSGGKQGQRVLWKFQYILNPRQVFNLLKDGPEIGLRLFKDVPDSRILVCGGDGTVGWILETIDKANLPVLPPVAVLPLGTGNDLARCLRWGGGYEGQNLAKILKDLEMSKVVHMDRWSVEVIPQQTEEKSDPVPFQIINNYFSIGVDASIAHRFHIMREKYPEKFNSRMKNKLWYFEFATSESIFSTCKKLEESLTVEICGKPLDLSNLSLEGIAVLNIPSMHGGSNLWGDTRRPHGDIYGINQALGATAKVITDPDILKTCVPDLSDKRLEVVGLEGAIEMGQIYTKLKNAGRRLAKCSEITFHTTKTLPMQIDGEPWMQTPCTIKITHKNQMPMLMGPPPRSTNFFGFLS

[4] = tested on: MC-38 murine colon adenocarcinoma cells; assay: In vivo efficacy in MC38 syngeneic mouse tumor model; settings: MC38, C57BL/6 mice; compound 67 0.6 mg/kg PO QD in combination with anti-PD-1 2 mg/kg i.p. twice per week
Method: Murine colon adenocarcinoma cells MC-38 were obtained from American Type Culture Collection (ATCC) and cultured in RPMI 1640 media containing 10% fetal bovine serum (FBS) at 37° C. in a humidified 5% CO2 incubator. Female C57BL/6 mice (20 2 g, 6-8 weeks old) were purchased from SPF Biotechnology Co., Ltd. (Beijing, China). MC-38 cells were collected from flask and suspended in PBS. Suspension of 1×10^6 cells in 0.1 mL culture media without FBS was injected subcutaneously into animal armpits. Once the tumor reached 100-150 mm^3, the mice were randomized into different groups and treatment was initiated. Mice were treated orally once per day (PO, QD) with compound 67 (0.6 mg/kg) or vehicle control. Anti-PD-1 antibody (BioXcell, Cat #BE0273) was diluted with PBS for dosing at 2 mg/kg and was administrated via intraperitoneal injection, twice per week. Tumor volume and body weight of mice were recorded twice per week.
All animals were housed in a room maintained at 23±3° C., 65%-75% humidity, with a controlled 12 h light-dark cycle for 5-7 days before experiments. Water and commercial laboratory complete food for mice were provided in the cage.
Tumor volume was calculated by measuring two perpendicular diameters using the following formula: (L×W^2)/2, in which L and W refer to the length and width tumor diameter, respectively.

DGKa [5] = biological target: T1, DGKa; assay: biochemical
[6] = tested on: CT26 murine colorectal adenocarcinoma cells; assay: In vivo efficacy in CT26 syngeneic mouse tumor model; settings: CT26, BALB/c mice; 3 mg/kg PO QD
Method: Murine colorectal adenocarcinoma cells CT26 (purchased from ATCC) were cultured in RPMI 1640 medium with 10% FBS. For tumor implantation, 6-8 weeks old BALB/c female mice (Beijing Vital River Laboratory Animal Technology Co., Ltd.) were given a subcutaneous injection of CT26 cell (1×10^7 cells/mL) in 0.1 mL suspension into the right flank. Once tumors grew to a volume of 50-100 mm3, mice were randomized into different groups and treatment was initiated. Mice were treated orally once per day (PO, QD) with DGK inhibitors (3 mg/kg) or vehicle control. Anti-PD-1 antibody (BioXcell, Cat #BE0273), anti-CTLA4 antibody (BioXcell, Cat #BE0164) were diluted with PBS for dosing at 10 mg/kg or 5 mg/kg, respectively. Antibody was administrated via intraperitoneal injection, twice per week. Tumor volume and body weight of mice were recorded twice per week.
All animals were housed in a room maintained at 23:3° C., 65%-75% humidity, with a controlled 12 h light-dark cycle for 5-7 days before experiments. Water and commercial laboratory complete food for mice were provided in the cage.

Row | EC50 (Jurkat cells) [nM] | CLint scaled at 1 μM [1] [mL/min/kg] | half-life at 1 μM [1] [h] | EC50 [2] [nM] | IC50 (DGKz) [nM] | IC50 (DGKa [3]) [nM] | IC50 (DGKa [5]) [nM] | SMILES | EC50 (PBMC) [nM] | Tumor inhibition activity [4] | Tumor growth [6]
1 | 70 | 18.3 | 1.58 | 679 | – | – | – | C[C@@H]1CN2c3c(c(=O)n(C)c4ccc(C#N)nc34)OC[C@@H]2CN1[C@@H](C)c1ccc(C(F)(F)F)cc1 (stereo in doubt) [Compound 223] | 47 | – | –
2 | 30 | 1.1 | 25.7 | 265 | – | – | – | CC[C@@H]1CN2c3c(c(=O)n(C)c4ccc(C#N)nc34)OC[C@@H]2CN1[C@@H](CC)c1ccc(C(F)(F)F)c(Cl)c1 (stereo in doubt) [Compound 246] | 23 | – | –
3 | 67 | – | – | 335 | 42 | 16 | – | CC[C@H]1CN([C@@H](CC)c2ccc(C(F)(F)F)cc2)[C@H](CC)CN1c1nc2nncn2c2ccc(C#N)nc12 [Compound 34] | 44 | – | –
4 | 49 | 7.5 | 3.88 | 102 | 16 | – | 4 | CC[C@@H]1CN2c3c(c(=O)n(C)c4ccc(C#N)nc34)OC[C@@H]2CN1[C@@H](CC)c1ccc(C(F)(F)F)cc1 [Compound 67] | 40 | significantly better tumor inhibition activity than either of the single agents | –
5 | 32 | 12.3 | 2.37 | 144 | – | – | – | CC[C@@H]1CN2c3c(c(=O)n(C)c4ccc(C#N)nc34)OC[C@@H]2CN1[C@@H](CC)c1ccc(Cl)c(Cl)c1 (stereo in doubt) [Compound 250] | 16 | – | inhibit tumor growth
6 | 12 | 12.4 | 2.35 | 281 | – | – | – | CC[C@@H](c1ccc(Cl)c(Cl)c1)N1C[C@H]2COc3c(c4nc(C#N)ccc4n(C)c3=O)N2C[C@H]1C (stereo in doubt) [Compound 322] | 25 | – | –
